Where two headings read alike, the source gives them in different places.
Tests used:
[1] = test system: N-Methyl-D-aspartic acid receptor; experiment: SafetyScreen44 radioligand binding; parameters: species or system rat; conditions: 1 μM
Procedure: (§1) The SafetyScreen44® assay was carried out by Eurofins (Poitiers, France) according to the service-provider’s protocol. CPL500036 (1 µM) was tested against a panel of […] potential off-targets proteins, including G protein-coupled receptors (GPCRs), transporters, ion channels, nuclear receptors kinases and other non-kinase enzymes, by use of a set of the binding assays.
(§2) Binding of CPL500036 was calculated as the percent binding inhibition of a radioactively labeled ligand specific for each target. Enzyme inhibition of CPL500036 was calculated as the percent inhibition of the activity of the control enzyme. “No interaction” was denoted if inhibition ≤ 25% of specific binding of the control. Determination of muscarinic acetylcholine receptor (M2) activity induced by CPL500036 (antagonism and agonism) was undertaken in human recombinant CHO cells by measurement of the intracellular cAMP level according to the service-provider’s protocol. IC50 (concentration causing a half-maximal inhibition of specific binding of the control) or EC50 (concentration causing a half-maximal response of specific binding of the control) and the Hill coefficient were determined by non-linear regression analysis of the competition curves generated with mean replicate values using Hill-equation curve fitting with software developed at Cerep (Celle-Lévescault, France).

[2] = test system: benzodiazepine receptor (GABAA); experiment: SafetyScreen44 radioligand binding; parameters: species or system rat; conditions: 1 μM; agonist radioligand
Procedure: as §1, §2

[3] = test system: calcium channel, voltage-dependent, L type; experiment: SafetyScreen44 radioligand binding; parameters: species or system rat; conditions: 1 μM
Procedure: as §1, §2

[4] = test system: voltage-gated sodium channels site 2; experiment: SafetyScreen44 radioligand binding; parameters: species or system rat; conditions: 1 μM
Procedure: as §1, §2

[5] = test system: α-dendrotoxin sensitive potassium channel; experiment: SafetyScreen44 radioligand binding; parameters: species or system rat; conditions: 1 μM
Procedure: as §1, §2

[6] = test system: Salmonella typhimurium TA98; experiment: Ames test; conditions: CPL500036 5000µg/plate, n=3
[7] = test system: Salmonella typhimurium TA1535; conditions: CPL500036 5000µg/plate, n=3
[8] = Pharmacokinetics after oral gavage in rats (plasma and brain); assay type: in vivo, Wistar Han rats; conditions: for AUC(0-t): read-out: AUC(0–24h)
Procedure: The study was carried out in 40 male Wistar Han rats (∼10 weeks; Tri-City Academic Laboratory Animal Centre, Research and Services Centre, Medical University of Gdansk). Rats were fasted for 12 h (water was available at libitum) before administration and fed 4 h post-dose. Rats received CPL500036 (3 mg/kg per oral gavage). At each of eight time points (15 min, 30 min as well as 1 h, 2 h, 4 h, 7 h, 12 h, and 24 h), five rats were killed by exsanguination, and samples of blood and brain were harvested. Two male and two female Beagle dogs (10.5–13 months old, MediTox s.r.o., Konarovice, Czech Republic) received CPL500036 in a dose of 1.5 mg/kg per oral gavage. Blood was taken by venepuncture from v. cephalica antebrachii at twelve time points (0 min, 15 min, 30 min as well as 1 h, 2 h, 3 h, 4 h, 6 h, 8 h, 12 h, 24 h, and 48 h.
Blood was collected into tubes containing the anticoagulant K2EDTA and centrifuged (2,000 × g, 15 min, 4°C) to obtain plasma. Brain samples were homogenized in water. Plasma and brain homogenates were stored at −80°C until analyses. Acetonitrile (150 μl) spiked with internal standard (donepezil; MilliporeSigma) was added to 50 μl of each plasma homogenate or brain homogenate, respectively. The mixture was shaken vigorously for 2 min and then centrifuged (4,000 × g, 4 min, room temperature). Supernatants were injected into a high-performance liquid chromatography system (Infinity™ 1,260; Agilent Technologies, Santa Clara, CA, United States) with a Zorbax SB column ([…]; 1.8 μm; Agilent Technologies). The mobile phase was ammonium formate (20 mM, pH 3.0) and acetonitrile with 0.1% formic acid. The gradient chromatographic separation used a flow rate of 0.4 ml/min for 7.5 min at a nominal temperature of 30°C. Signal acquisition was undertaken for 5.5 min using of a triple quadrupole mass spectrometer (6,460 series; Agilent Technologies) with electrospray ionization (5500 V, 320°C). Multiple-reaction monitoring was applied to detect the following transitions of the m/z ratio: 342.0–220.9 and 342–235.9 for CPL500036; 380.5–362.9 and 380.5–243.5 for donepezil. The drug concentration was calculated from the ratio of the peak area response relative to the internal standard using a standard curve.

[9] = pKa (Figure 1); assay type: physicochemical; conditions: printed in the picture of Figure 1, no method given
[10] = test system: other PDE family members; parameters: method as in Moszczyński-Pętkowski et al., 2018; conditions: at a concentration of 100x IC50; ref Moszczyński-Pętkowski et al., 2018; cited from earlier work
[11] = With metabolic activation (+S9 mix), 2AA 2µg/plate
[12] = Without metabolic activation (-S9 mix), NPD 4µg/plate
[13] = Without metabolic activation (-S9 mix), SAZ 2µg/plate
[14] = male, Wistar Han, rat brain, 3 mg/kg oral gavage, mean ± SD
[15] = male, Wistar Han, rat plasma, 3 mg/kg oral gavage, mean ± SD

Question: What does the source list for `Cc1ncc(C)n2nc(-c3ccn4cc(-c5ccccc5)nc4n3)nc12` [CPL500036, 7-[5,8-Dimethyl-(1,2,4)triazolo (1,5-a)pyrazin-2-yl]-2-phenylimidazo (1,2-a) pyrimidine]?
Answer: % Inh (% inhibition of control specific binding) [1]: 4.4%; % Inh (% inhibition of control specific binding) [2]: −27.7%; % Inh (% inhibition of control specific binding) [3]: −7.2%; % Inh (% inhibition of control specific binding) [4]: −1.3%; % Inh (% inhibition of control specific binding) [5]: −10.2%; Mutation rate [6, 11]: 0.92; Revertants Mean±SD [6, 11]: 18.3±8.02; Mutation rate [6, 12]: 0.74; Revertants Mean±SD [6, 12]: 14.3±1.15; Mutation rate [7, 11]: 0.6; Revertants Mean±SD [7, 11]: 8.3±5.13; Mutation rate [7, 13]: 1.13; Revertants Mean±SD [7, 13]: 12.0±5.57; bioavailability ([8]; Wistar rats, 3 mg/kg, p.o.): good bioavailability; Kp ([8]; male, Wistar Han, brain/plasma, rat, 3 mg/kg oral gavage, mean ± SD, read-out: B/P (brain to plasma ratio)): 0.49 ± 0.06; Cmax [8, 14]: 94.3 ± 28.5 ng/g; Tmax [8, 14]: 6.8 ± 3.3 h; AUC(0-t) [8, 14]: 844 ± 202 ng·h/mL; Cmax [8, 15]: 238 ± 98.1 ng/mL; Tmax [8, 15]: 5.8 ± 1.6 h; half-life [8, 15]: 6.4 ± 6.2 h; AUC(0-t) [8, 15]: 1620 ng·h/mL; pKa [9]: 2.41; inhibition of other PDE family members [10]: didn’t inhibit other PDE family members
